Experimental data: patent publication US4042695A, “Thiaxanthene derivatives, compositions thereof and methods of treating therewith” (priority 1972, dated 1977)
Where two headings read alike, the source gives them in different places.

What was measured:
[1] = Pharmacological tests (test not specified); settings: in vivo; listed as Example 12 alpha-isomer
rats = assay: Antagonism of amphetamine-induced stereotyped behaviour in rats; format: in vivo; settings: oral; for ED50: Rattus norvegicus
Experimental: The modification used by us was as follows:
The animals were then placed in individual cages. […] The absence of stereotypy was interpreted as a drug effect. ED50 values for protection against stereotypy were determined. All compounds were tested at a minimum of three dose levels using 10 rats per dose, and the observer was kept unaware of the identity of the groups until after the experiment.

[2] = system: adult purebred Beagle dogs; assay: Apomorphine antagonism in dogs; format: in vivo; settings: ordinary doses, prolonged treatment

## OCCC1CCN(CCC=C2c3ccc(F)cc3Sc3ccc(C(F)(F)F)cc32)CC1 [Substance 13, alpha-isomer of 2-trifluoromethyl-6-fluoro-9-(3-(4-(2-hydroxyethyl)-1-piperidyl)propylidene)-thiaxanthene]
[1]
  pharmacological activity of the isomer (in words): pharmacologically active
rats; 24 hours after administration, read-out: ED50 for protection against stereotypy, peak effect (24 hours)
  ED50: 0.04 mg/kg
rats; 48 h, read-out: ED50 for protection against stereotypy, 48 h
  ED50: 0.2 mg/kg
rats; 72 h, read-out: ED50 for protection against stereotypy, 72 h
  ED50: 0.9 mg/kg
rats; 96 h, read-out: ED50 for protection against stereotypy, 96 h
  ED50: 2.3 mg/kg
rats
  time of peak effect, amphetamine antagonism: 24 h
rats; 4 days
  amphetamine antagonistic effect 4 days after administration (in words): rather weak
[2]
  feed intake and survival: did not take feed to a sufficient degree and, accordingly tended to die by starvation
